Literature values in patent publication US10627374B2, “LC-MS configuration for purification and detection of analytes having a broad range of hydrophobicites” (COHESIVE TECHNOLOGIES INC., priority 2010, dated 2020).
Like-named read-outs stand apart in the source and are kept apart here.

**Q.** For O=c1[nH]cc(F)c(=O)[nH]1 [5-Fluorouracil], which logP (Table 2) is on record?
**A.** Its logP is −0.9.

**Q.** Which results are given for CS(=O)(=O)OCCCCOS(C)(=O)=O [Busulfan]?
**A.** logP (Table 1): −1.15; logP (Table 2): −1.15

**Q.** Which logP (Table 1) does the source give for C[C@]12CCC(=O)C=C1CC[C@@H]1[C@@H]2[C@@H](O)C[C@@]2(C)[C@H]1CC[C@]2(O)C(=O)CO [Cortisol (hydrocortisone)] here?
**A.** The logP was 1.26.

**Q.** And the logP (Table 2)?
**A.** The logP was 1.26.

**Q.** With CO[C@H]1C[C@@H]2CC[C@@H](C)[C@@](O)(O2)C(=O)C(=O)N2CCCC[C@H]2C(=O)O[C@H]([C@H](C)C[C@@H]2CC[C@@H](OCCO)[C@H](OC)C2)CC(=O)[C@H](C)/C=C(\C)[C@@H](O)[C@@H](OC)C(=O)[C@H](C)C[C@H](C)/C=C/C=C/C=C/1C [Everolimus] as the molecule, how does the logP (Table 1) read?
**A.** Its logP is 5.01.

**Q.** And the logP (Table 2)?
**A.** Its logP is 5.01.

**Q.** What about the “log P” value (approximate) of the same molecule?
**A.** The value was “about 5.01”.

**Q.** Which logP (Table 1) does the source give for CN(Cc1cnc2nc(N)nc(N)c2n1)c1ccc(C(=O)N[C@@H](CCC(=O)O)C(=O)O)cc1 [Methotrexate] here?
**A.** The logP was 0.94.

**Q.** What about the logP (Table 2) of the same molecule?
**A.** The logP was 0.94.

**Q.** What does the source list for C[C@]12C=CC(=O)C=C1CC[C@@H]1[C@@H]2C(=O)C[C@@]2(C)[C@H]1CC[C@]2(O)C(=O)CO [Prednisone]?
**A.** logP (Table 1): 2.07; logP (Table 2): 2.07

**Q.** With C=CC[C@@H]1/C=C(\C)C[C@H](C)C[C@H](OC)[C@H]2O[C@@](O)(C(=O)C(=O)N3CCCC[C@H]3C(=O)O[C@H](/C(C)=C/[C@@H]3CC[C@@H](O)[C@H](OC)C3)[C@H](C)[C@@H](O)CC1=O)[C@H](C)C[C@@H]2OC [Tacrolimus] as the molecule, how does the logP (Table 1) read?
**A.** The logP was 3.3.

**Q.** What about the logP (Table 2) of the same molecule?
**A.** Its logP is 3.3.
